Counter-ions that a name gives are not always drawn.
Tests used:
OGA = molecular target: T1, OGA (Homo sapiens, UniProt O60502); assay: OGA cellular assay (ICC detection of O-GlcNAcylated proteins in HEK293 cells inducible for P301L mutant human Tau); assay type: cell-based
T1 construct: endogenous in cells; host or cells: HEK293 cells inducible for P301L mutant human Tau (2N4R)
T1 sequence (O60502 1-916): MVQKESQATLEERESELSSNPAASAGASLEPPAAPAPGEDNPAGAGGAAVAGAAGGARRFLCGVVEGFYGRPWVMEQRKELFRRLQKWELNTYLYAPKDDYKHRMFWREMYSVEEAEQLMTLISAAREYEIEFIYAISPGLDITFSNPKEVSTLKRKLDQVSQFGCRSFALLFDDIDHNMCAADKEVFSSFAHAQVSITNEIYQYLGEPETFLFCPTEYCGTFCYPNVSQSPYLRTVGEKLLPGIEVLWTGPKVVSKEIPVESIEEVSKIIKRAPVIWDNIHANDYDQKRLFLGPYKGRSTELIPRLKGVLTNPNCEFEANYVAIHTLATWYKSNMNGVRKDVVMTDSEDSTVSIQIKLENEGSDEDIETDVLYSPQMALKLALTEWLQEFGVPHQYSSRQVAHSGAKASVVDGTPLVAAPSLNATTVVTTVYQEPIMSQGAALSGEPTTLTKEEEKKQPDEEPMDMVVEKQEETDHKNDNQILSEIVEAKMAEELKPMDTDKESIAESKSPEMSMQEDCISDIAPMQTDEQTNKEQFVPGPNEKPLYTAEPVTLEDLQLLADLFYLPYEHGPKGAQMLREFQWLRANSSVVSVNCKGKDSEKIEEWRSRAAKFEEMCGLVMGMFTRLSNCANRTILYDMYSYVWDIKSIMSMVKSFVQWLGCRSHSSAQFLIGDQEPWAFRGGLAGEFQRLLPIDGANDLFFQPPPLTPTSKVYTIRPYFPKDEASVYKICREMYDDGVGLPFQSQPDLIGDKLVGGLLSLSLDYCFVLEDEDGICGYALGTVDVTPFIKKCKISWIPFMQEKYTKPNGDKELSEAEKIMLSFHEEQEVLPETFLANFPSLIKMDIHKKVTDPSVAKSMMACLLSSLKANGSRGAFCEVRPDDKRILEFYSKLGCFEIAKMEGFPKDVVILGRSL
Summary of the method: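 HEK293 cells inducible for P301L Tau, in low-glucose assay medium, treated 6 h with compound at 0.2% DMSO. O-GlcNAcylated proteins detected by CTD110.6 immunostaining, imaged at 488 nm with Hoechst nuclear counts for toxicity. IC50 from non-linear regression, 200 uM Thiamet G as maximum.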

[1] = molecular target: T2, recombinant human Meningioma Expressed Antigen 5 (MGEA5), also referred to as O-GlcNAcase (OGA) (Homo sapiens, UniProt O60502); assay: OGA biochemical assay (inhibition of FM-GlcNAc hydrolysis, fluorescence)
T2 construct: Full length OGA enzyme was purchased at OnGene (cat #TP322411); purchased OnGene (so in the source)
T2 sequence (O60502 1-916): T1 sequence (O60502 1-916)
Summary of the method: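 Full-length recombinant OGA (2 nM) pre-incubated with compound 60 min at room temperature, then FM-GlcNAc (100 µM final) added in citrate/phosphate buffer pH 7.2 with 0.005% Tween-20. After 6 h at room temperature, stopped with carbonate pH 11.0; fluorescein read at 485/538 nm; IC50 and Hill coefficient from curve fit.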

Row | Structure (SMILES) | melting point [°C] | other results
1 | Cc1cc(NCC2CCCN(C(C)c3ccc4c(c3)OCC4)C2)cc(C)n1 (centres unmarked) (as salt: HCl) [Product 22] | 248.4 | –
2 | COc1cc(NCC2CCCN(C(C)c3ccc4c(c3)OCC4)C2)cc(C)n1 (centres unmarked) (as salt: HCl) [Product 30] | 261.3 | –
3 | COc1cc(NCC2CCCN(C(C)c3cc4c(cc3F)OCCO4)C2)cc(C)n1 (centres unmarked) (as salt: HCl) [Product 38] | 164.7 | –
4 | Cc1cc(NCC2CCCN(C(C)c3cc4c(cc3F)OCCO4)C2)cc(C(F)(F)F)n1 (centres unmarked) (as salt: HCl) [Product 99] | 235.3 | –

The next lines start with results.

Row | melting point [°C] | Structure (SMILES) | other results
5 | 193 | Cc1cc(NCC2CCCN(C(C)c3ccc4c(n3)OCCO4)C2)cc(C)n1 (centres unmarked) (as salt: HCl) [Product 21] | –
6 | 266.7 | COc1cc(NCC2CCCN(C(C)c3ccc4c(n3)OCCO4)C2)cc(C)n1 (centres unmarked) (as salt: HCl) [Product 23] | –
7 | 62.45 | Cc1cc(C[C@H]2CCCN(C(C)c3ccc4c(n3)OCC(=O)N4)C2)cc(C)n1 (single isomer, unassigned) [Product 61] | Emax (OGA; HEK293, HEK293 cells inducible for P301L mutant human Tau, maximal effect, Thiamet G 200 uM as maximum): 45%; EC50 (OGA; HEK293 cells inducible for P301L mutant human Tau, 6 hours incubation, read-out: Cellular hOGA, pEC50 (converted)): > 1000 nM; Enzymatic Emax (%) ([1]; maximal effect): 102%; IC50 ([1]; read-out: Enzymatic hOGA, pIC50 (converted)): 39.8 nM
